Experimental data taken from patent US9176114B2, “Cell culture model for acquired chemoresistance of chronic myelogenous leukemia and related methods for identifying agents to overcome resistance” (CITY OF HOPE, priority 2007, dated 2015).
Entries after “also recorded” stand apart in the source; their conditions may differ.

How the values were obtained:
KCL-22 cells [1] = experiment: Resistance assay: relapse of KCL-22 cells in prolonged liquid culture (CML acquired resistance model); assay type: cell-based, human; conditions: for relapse of KCL-22 cells on 5 μM STI-571 in combination / cell death by the inhibitor alone: 300 μM splitomicin or 15 mM nicotinamide; for cell death by the inhibitor alone: first two weeks; for relapse of KCL-22 cells on imatinib (STI-571) in combination with the inhibitor: prolonged culture
Source text: (§1) Cells were maintained in these cultures without changing medium.
Cells were maintained in these cultures without changing medium. Aliquots of cells were taken out at specified time points and cell numbers counted using a hematocytometer. Cell viability was accessed by trypan blue exclusion where necessary.

HIC1 = HIC1 expression / SIRT1 level after HDAC and DNMT inhibitors; assay type: cell-based, human; conditions: KCL-22 cells, alone or in combination
Source text: Total cellular RNA with Trizol (Invitrogen) using a standard protocol. First strand DNA was synthesized and HIC1 expression by quantitative real-time RT-PCR using a kit with SYBR Green label (Invitrogen) as per the manufacture's instruction on a BioRad machine OPTICON. The following are the HIC1 primers (spanning introns), 5′-[…]-3′(exon 1a) and 5′-[…]-3′ (Exon 2). [>ref|NT—010718.15|Hs17—10875:1561637-1565694 Homo sapiens chromosome 17 genomic contig, reference assembly]
SIRT1 expression was analyzed by Western blot using 1:5000 diluted rabbit monoclonal SIRT1 antibody (Epitomics). Controls used were GAPDH or actin as loading controls with rabbit anti-GAPDH (Trevigen) or anti-actin (Sigma) at 1:5000 dilution. GAPDH [>ref|NT—009759.15|Hs12—9916:6497433-6502281 Homo sapiens chromosome 12 genomic contig, reference assembly] primers used are as follows: […]

BCR-ABL mutants = conditions: cited from earlier work
[2] = system: CML patients with T315I mutation; conditions: human, in vivo; cited from earlier work
FOXO1 = experiment: Flow cytometry assay of acetylation of FOXO1 in KCL-22 cells; assay type: cell-based, human; conditions: compound treatment for 24 h
Experimental: SIRT1 inhibitor-induced acetylation of cellular SIRT1 substrates, Ku70 and FOXO proteins, are determined by immunoprecipitation of these proteins followed by Western blot analysis for acetyl lysine. Acetylation of FOXO1 is also directly examined by flow cytometry-based analysis as done in FIG. 40D.

SIRT1 = target: T1, SIRT1 (Homo sapiens, UniProt Q96EB6); experiment: FRET-based SIRT1 inhibition assay; conditions: All compounds in 50 μM
T1 sequence (Q96EB6 1-747): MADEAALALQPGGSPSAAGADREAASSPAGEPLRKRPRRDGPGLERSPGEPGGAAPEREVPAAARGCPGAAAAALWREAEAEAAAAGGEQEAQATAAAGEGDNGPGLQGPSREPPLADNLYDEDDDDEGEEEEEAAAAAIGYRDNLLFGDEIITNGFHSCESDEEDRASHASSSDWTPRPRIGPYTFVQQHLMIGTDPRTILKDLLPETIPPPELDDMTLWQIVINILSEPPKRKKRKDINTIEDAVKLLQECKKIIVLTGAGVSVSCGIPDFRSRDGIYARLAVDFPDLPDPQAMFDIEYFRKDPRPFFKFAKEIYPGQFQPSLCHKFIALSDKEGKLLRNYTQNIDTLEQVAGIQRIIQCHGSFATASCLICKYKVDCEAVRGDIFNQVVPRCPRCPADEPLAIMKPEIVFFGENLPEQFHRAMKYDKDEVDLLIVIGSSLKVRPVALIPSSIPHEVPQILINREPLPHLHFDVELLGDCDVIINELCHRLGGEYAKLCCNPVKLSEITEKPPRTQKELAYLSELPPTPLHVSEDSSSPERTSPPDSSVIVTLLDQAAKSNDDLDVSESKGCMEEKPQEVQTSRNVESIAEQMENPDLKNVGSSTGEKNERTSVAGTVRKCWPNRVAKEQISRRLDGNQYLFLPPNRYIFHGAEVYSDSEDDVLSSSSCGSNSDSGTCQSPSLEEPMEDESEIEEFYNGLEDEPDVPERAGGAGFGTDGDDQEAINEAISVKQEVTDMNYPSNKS

K562 cells [3] = experiment: Cell growth, apoptosis (annexin V) and cell cycle analysis; assay type: cell-based, human
Experimental: (§2) One half million cells per well were seeded in a 24-well plate and at 2 and 4 days after initiation of drug treatment, surviving cells were counted (A, B). […] The percentage of annexin V positive cells including early and late apoptotic cells was plotted underneath FACS charts.
(§3) Cell apoptosis was analyzed with annexin V kit (BD Pharminggen) as per the manufacturer's instruction.

KCL-22 cells [4] = experiment: as above; assay type: cell-based, human
Experimental: as §2, §3

SD1 cells = experiment: Resistance assay in BCR-ABL positive ALL cells; assay type: cell-based, human; conditions: 50 μM sirtinol alone or in combination with STI-571, prolonged culture
Experimental: as §1
The ability of sirtinol and imatinib to block resistance related to BCR-ABL mutations and non-mutants was determined in acute lymphocytic leukemia (ALL) cells.

K562 cells [5] = experiment: Growth factor-induced transient resistance (serum-free medium, basic supplements, insulin); assay type: cell-based, human
Experimental: (A) Growth curves of K562 cells in serum medium, and serum-free medium supplied with basic supplements containing 5 μg/ml insulin and 5 μg/ml transferrin (basic) with or without 75 ng/ml EGF, 25 μg/ml HDL or both (EH). […] Relative survival of imatinib treated cells was calculated by comparison to no drug treatment. Pre-incubation for two days renders resistance. […] Since sirtinol is insoluble in SF medium, HDL 25 μg/ml was added to help dissolve the drug. (D) Effects of basic supplements in serum medium. […] Viable cells were counted one and three days after the treatment. […] (F) Effects of insulin in resistance.
Whether serum-free medium supplied with select growth factors provides a better culture environment for developing CML chemoresistance was determined. Serum-free (SF) medium with insulin, transferring, epidermal growth factor (EGF) and high density lipoprotein (HDL) was used. SF medium with the basic supplements (5 μg/ml insulin and 5 μg/ml transferring) was sufficient to support growth of both K562 cells (FIG. 13A) and KCL-22 cells. […] Sirtinol is able to overcome CML resistance in SF culture.
Transient resistance conferred by insulin and transferrin supplement is of interest as insulin receptor is overexpressed in about 90% primary CML cells. The key insulin downstream target phosphatidylinositol-3 kinase (PI3K) is required for BCR-ABL mediated transformation and inhibition of PI3K-Akt-mTor pathway has been explored to overcome CML chemoresistance. SIRT1 is a key gene for regulating insulin secretion and directly regulates Akt downstream target FOXO proteins through deacetylation. Therefore, the effect of insulin itself for transient resistance to imatinib and the response of sirtinol treatment were examined.

Aurora A = experiment: Expression of Aurora kinases by Western blot in KCL-22M cells; assay type: cell-based, human; conditions: two days of drug treatment
Solubility = assay type: physicochemical
[6] = 50 μM sirtinol with 1 μM STI-571
[7] = two days treatment, PI staining

With `Nc1ncn([C@H]2C[C@H](O)[C@@H](CO)O2)c(=O)n1` [AZA, 5-aza-2-deoxycytidine] the “relapse on AZA plus STI-571” value (KCL-22 cells [1]; 1 μM AZA with STI-571) was “did successfully block relapse on 2.5 and 5 μM; also recorded: blocked relapse at 2.5 and 5 μM of STI-571”, the “reactivation of HIC1 expression / reduction of SIRT1 level” value (HIC1) was “could not reactivate HIC1 expression or reduce SIRT1 level” and the “growth of KCL-22M cells” value (KCL-22M cells; 1 μM inhibitor) was “inhibited its growth but did not promote significant cell death”.

With `CC(=O)N[C@@H](CS)C(=O)O` [NAC, N-acetylcysteine] the cytotoxicity (KCL-22 cells [1]; 50 mM NAC) was “significant cytotoxicity”.

For `Cc1cn(-c2cc(NC(=O)c3ccc(C)c(Nc4nccc(-c5cccnc5)n4)c3)cc(C(F)(F)F)c2)cn1` [Nilotinib], the BCR-ABL mutants inhibited (BCR-ABL mutants) is given as “inhibits most of the known mutants with the exception of the T315I mutation”.

In the case of `Cc1cc(Nc2cc(N3CCN(C)CC3)nc(Sc3ccc(NC(=O)C4CC4)cc3)n2)n[nH]1` [VX-680], the “inhibition of T315I BCR-ABL” value (BCR-ABL mutants) is listed as “potently inhibits” and the clinical response [2] is listed as “Three CML patients with T315I mutation responded”.

In the case of `O=C(NN=Cc1c(O)ccc2ccccc12)c1ccncc1` [compound 22, N′-((2-hydroxyl-1-naphthyl)methylene)isonicotinohydrazide], the “inhibitory activity (block of CML relapse) compared with compound 163580” value (KCL-22 cells [1]) is reported as “better inhibitory activity than 163580”, the “acetylation of FOXO1” value (FOXO1) is reported as “outperformed sirtinol and tenovin-6” and the “SIRT1 inhibition in FRET-based biochemical assay” value (SIRT1) is reported as “outperformed sirtinol and tenovin-6”.

With `CC(=NNC(=O)c1ccncc1)c1ccc2ccccc2c1O` [compound 24, N′-(1-(1-hydroxy-2-naphthyl)ethylidene)isonicotinohydrazide] the “inhibitory activity (block of CML relapse) compared with compound 163580” value (KCL-22 cells [1]) was “better inhibitory activity than 163580”, the “acetylation of FOXO1” value (FOXO1) was “outperformed sirtinol and tenovin-6” and the “SIRT1 inhibition in FRET-based biochemical assay” value (SIRT1) was “outperformed sirtinol and tenovin-6”.

In the case of `Oc1ccc2ccccc2c1C1=NNc2n[nH]c(=S)n2N1` [compound 163580], the “prevention of CML cell relapse upon imatinib compared with sirtinol (50 μM)” value (“prevention … compared with sirtinol (50 μM)” for short) (KCL-22 cells [1]) is reported as “more effective in preventing CML cell relapse upon imatinib treatment than an effective dose of sirtinol”.

For `COc1ccc2nc3cc(Cl)ccc3c(NCCCCN3CCCC3)c2n1.Cl.Cl.Cl` [compound 261408], the “prevention … compared with sirtinol (50 μM)” value (KCL-22 cells [1]) was “more effective in preventing CML cell relapse upon imatinib treatment than an effective dose of sirtinol” and the toxicity to cells (KCL-22 cells [1]) was “too toxic to cells”.

For `Clc1ccc2nc(CCSCCc3nc4ccc(Cl)cc4[nH]3)[nH]c2c1` [compound 628445], the “prevention … compared with sirtinol (50 μM)” value (KCL-22 cells [1]) was “more effective in preventing CML cell relapse upon imatinib treatment than an effective dose of sirtinol”.

For `CCN(C(C)=O)c1cnc(C=NNC(N)=S)c2ccccc12` [compound 687305], the “prevention … compared with sirtinol (50 μM)” value (KCL-22 cells [1]) was “more effective in preventing CML cell relapse upon imatinib treatment than an effective dose of sirtinol”.

With `NC(=O)c1cccnc1` [nicotinamide] the “lowest dose that blocked relapse on imatinib” value (KCL-22 cells [1]) was 1 µM, the “relapse of KCL-22 cells on 5 μM STI-571 in combination” value (KCL-22 cells [1]) was “effectively blocked; also recorded: blocked relapse” and the “cell death by the inhibitor alone” value (KCL-22 cells [1]) was “did not, by themselves, induce significant cell death”. For the same compound, the “relapse of KCL-22 cells on imatinib (STI-571) in combination with the inhibitor” value (shortened to “relapse of KCL-22 cells … with the inhibitor”) (KCL-22 cells [1]) was “blocks relapse”.

For `CC(NC(=O)c1ccccc1/N=C/c1c(O)ccc2ccccc12)c1ccccc1` (centres unmarked) [sirtinol], the “recurrence on nilotinib or dasatinib in combination with SIRT1 inhibitor” value (KCL-22 cells [1]) was “effectively blocked the recurrence”, the “relapse on 1 μM Dasatinib in combination with sirtinol” value (KCL-22 cells [1]) was “blocked relapse” and the “relapse on […] Nilotinib in combination with SIRT1 inhibitor” value (KCL-22 cells [1]) was “blocked relapse”. For the same compound, the “relapse on sirtinol alone” value (KCL-22 cells [1]; 50 μM sirtinol alone) was “resulted in relapse after two weeks”, the “relapse of KCL-22 cells … with the inhibitor” value (KCL-22 cells [1]) was “blocks relapse” and the “relapse of KCL-22 cells … with the inhibitor” value (KCL-22 cells [1]; listed as Sirtinol) was “blocked relapse at all dosages of STI-571”. For the same compound, the cell growth (K562 cells [3]; 50 μM sirtinol alone) was “inhibited the growth”, the “growth inhibition, combination” value (K562 cells [3]; [6]) was “synergized their inhibitory effects” and the “apoptosis (annexin V)” value (K562 cells [3]; sirtinol alone) was “significantly induced annexin V positive apoptotic cells”. The “apoptosis (annexin V), combination” value (K562 cells [3]; sirtinol combined with STI-571) was “induced more dramatic apoptosis than each individual drug”, the cell cycle (K562 cells [3]; [7]) was “rapidly increased sub-G1 and apoptotic fraction” and the cell growth (KCL-22 cells [4]; 50 μM sirtinol alone) was “inhibited the growth”. For the same compound, the “growth inhibition, combination” value (KCL-22 cells [4]; [6]) was “synergized their inhibitory effects”, the “apoptosis (annexin V)” value (KCL-22 cells [4]; sirtinol alone) was “significantly induced annexin V positive apoptotic cells” and the “apoptosis (annexin V), combination” value (KCL-22 cells [4]; sirtinol combined with STI-571) was “induced more dramatic apoptosis than each individual drug”. The cell cycle (KCL-22 cells [4]; [7]) was “reducing S/G2 and increasing sub-G1 population”, the “effect of sirtinol on SD1 cells” value (SD1 cells) was “eliminated these cells” and the “transient resistance to 1 μM STI-571 from basic supplements in serum medium” value (K562 cells [5]; 50 μM sirtinol) was “abolished this transient resistance”. For the same compound, the “transient resistance to 1 μM STI-571 from insulin” value (K562 cells [5]; sirtinol alone or in combination with STI-571) was “abolished this transient resistance”, the “cell killing in SF culture” value (K562 cells [5]; sirtinol alone or with STI-571, K562 and KCL-22 cells, no relapse) was “rapid killing” and the “Aurora A protein in KCL-22M cells” value (Aurora A) was “degraded”. The “effective concentration in vivo (limited by solubility)” value (Solubility) was “not obtainable in vivo”, the “solubility in SF medium” value (Solubility; serum-free medium) was “insoluble” and the “cell death of KCL-22M cells, combination” value (KCL-22M cells; 50 μM sirtinol with 1 μM AZA) was “induced partial cell death”. The “growth of KCL-22M cells, combination” value (KCL-22M cells; sirtinol (50 μM) with STI-571 ([…])) was “able to inhibit cell growth”.

In the case of `O=C1CCc2c(ccc3ccccc23)O1` [splitomicin], the “relapse of KCL-22 cells on 5 μM STI-571 in combination” value (KCL-22 cells [1]) is reported as “effectively blocked; also recorded: blocked relapse”, the “cell death by the inhibitor alone” value (KCL-22 cells [1]) is reported as “did not, by themselves, induce significant cell death” and the “relapse of KCL-22 cells … with the inhibitor” value (KCL-22 cells [1]) is reported as “blocks relapse”.
